Assay results from ChEMBL document CHEMBL1139707, “In vitro inhibitory activity of boropinic acid against Helicobacter pylori” (2006).
Converted amounts (≈) assume the structure as drawn.

tested on: Helicobacter pylori; experiment: Antimicrobial activity against Helicobacter pylori DSMZ 4867; assay type: functional

| MIC [µg/mL] | SMILES |
| --- | --- |
| 100 (≈ 485 µM) | CC(C)=CCOc1ccc(C(=O)O)cc1 [VALENCIC ACID] |
| > 200 | Cc1ncc([N+](=O)[O-])n1CCO [METRONIDAZOLE] |
| 50 (≈ 212 µM) | COc1cc(C(=O)O)ccc1OCC=C(C)C |

Continued, compound first:

| SMILES | MIC [µg/mL] |
| --- | --- |
| CC(C)=CCC/C(C)=C/COc1ccc(/C=C/C(=O)O)cc1 | > 200 |
| COc1cc(C(=O)O)ccc1OC/C=C(\C)CCC=C(C)C | > 200 |
| CC1(C)S[C@@H]2[C@H](NC(=O)[C@H](N)c3ccc(O)cc3)C(=O)N2[C@H]1C(=O)O [AMOXICILLIN] | 0.781 (≈ 2.14 µM) |
| CC[C@H]1OC(=O)[C@H](C)[C@@H](O[C@H]2C[C@@](C)(OC)[C@@H](O)[C@H](C)O2)[C@H](C)[C@@H](O[C@@H]2O[C@H](C)C[C@H](N(C)C)[C@H]2O)[C@](C)(OC)C[C@@H](C)C(=O)[C@H](C)[C@@H](O)[C@]1(C)O [CLARITHROMYCIN] | 1.25 (≈ 1.67 µM) |
| COc1cc(/C=C/C(=O)O)ccc1OCC=C(C)C [BOROPINIC ACID] | 1.62 (≈ 6.18 µM) |
| COc1cc(/C=C/C(=O)O)ccc1OC/C=C(\C)CCC=C(C)C | > 200 |
| CN(C)[C@@H]1C(O)=C(C(N)=O)C(=O)[C@@]2(O)C(O)=C3C(=O)c4c(O)cccc4[C@@](C)(O)[C@H]3C[C@@H]12 [TETRACYCLINE] | 4 (≈ 9 µM) |
| CC(C)=CCC/C(C)=C/COc1ccc2ccc(=O)oc2c1 [AURAPTENE] | 50 (≈ 168 µM) |
